Where two headings read alike, the source gives them in different places.

The conditions of series [1]: ref Rowland et al., 2007; cited from earlier work.
The format of series [2] is in vivo, olive baboons (Papio Anubis).

Consider `Cc1cc(=O)[nH]c2c1NC(=O)c1cccnc1N2C1CC1` [2-OHNVP, 2-hydroxynevirapine], for which the “metabolites detected in human plasma (metabolic profile, in words)” value (from here on “metabolites detected in human plasma”) in series [1] is “major metabolites”.
As for `Cc1ccnc2c1NC(=O)c1cc(O)cnc1N2C1CC1` [8-OHNVP], the “metabolites detected in human plasma” value in series [1] is given as “low plasma level”.
With `O=C1Nc2c(C(=O)O)ccnc2N(C2CC2)c2ncccc21` [4-CANVP, nevirapine 4-carboxylic acid], the “Cmax (maximum concentration)” value in series [2] (baboon serum, single oral dose of NVP 5 mg/kg, solution formulation, n = 2, mean) was determined as 144.90 ± 22.31 ng/mL.
As for `O=C1Nc2c(CO)ccnc2N(C2CC2)c2ncccc21` [12-OHNVP], the “ratio of the plasma level of 12-OHNVP and 4-CANVP” value came to 0.21 in series [2] (in vivo, 5 mg/kg) and 1.3 in series [2] (in vivo, 10 mg/kg). For the same compound, the “Cmax (maximum concentration)” value in series [2] (in vivo, po, 5 mg/kg) came out at 31.38 ± 10.59 ng/mL; in series [2] (in vivo, po, 10 mg/kg), 275.25 ± 126.07 ng/mL; in series [2] (in vivo, po, 400 mg) it was 157.16 ± 7.06 ng/mL; in series [2] (in vivo, po, 800 mg), 385.38 ± 346.21 ng/mL. In addition, the “metabolites detected in human plasma” value in series [1] is given as “major metabolites”.
Turning to `Cc1c(O)cnc2c1NC(=O)c1cccnc1N2C1CC1` [3-OHNVP], the “Cmax (maximum concentration)” value in series [2] (in vivo, po, 5 mg/kg) was 11.50 ± 3.63 ng/mL; in series [2] (in vivo, po, 10 mg/kg), 19.69 ± 9.94 ng/mL; in series [2] (in vivo, po, 400 mg) it was 16.53 ± 1.10 ng/mL; in series [2] (in vivo, po, 800 mg), 72.85 ± 60.37 ng/mL. The “metabolites detected in human plasma” value in series [1] is “major metabolites”.

The values above are taken from article PMC3118614 (Biomedical chromatography : BMC, 2010).
